Laboratory results published in patent US20120053200A1, “BACE 2 INHIBITORS” (priority 2010, published 2012).

These molecules were tested against T1, BACE2 (Rattus norvegicus, UniProt Q6IE75) (assay: Assay for BACE inhibition by measuring cellular TMEM27 cleavage (INS-TMEM27 cells, ELISA of shed TMEM27)). Details: inhibition of human TMEM27 cleavage by endogenous cellular BACE2 in INS1e-derived INS-TMEM27 rat cell line; ELISA of shed TMEM27 in supernatant.
T1 construct: endogenous cellular BACE2 in the Ins1e rat cell line; endogenous in cells; host or cells: INS-TMEM27 (INS1e-derived rat beta-cell line with doxycycline-inducible full-length hTMEM27)
T1 sequence (Q6IE75 63-514): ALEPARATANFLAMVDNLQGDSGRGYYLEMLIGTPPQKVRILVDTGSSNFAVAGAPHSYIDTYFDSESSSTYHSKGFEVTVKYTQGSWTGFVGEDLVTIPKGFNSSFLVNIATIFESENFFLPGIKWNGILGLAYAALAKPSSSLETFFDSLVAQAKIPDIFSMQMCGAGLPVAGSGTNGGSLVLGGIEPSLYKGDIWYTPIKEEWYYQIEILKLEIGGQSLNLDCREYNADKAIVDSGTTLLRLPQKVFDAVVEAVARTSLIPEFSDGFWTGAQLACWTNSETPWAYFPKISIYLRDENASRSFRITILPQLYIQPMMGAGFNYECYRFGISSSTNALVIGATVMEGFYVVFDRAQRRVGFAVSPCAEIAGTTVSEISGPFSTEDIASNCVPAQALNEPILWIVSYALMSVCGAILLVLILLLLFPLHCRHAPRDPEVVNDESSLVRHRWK
Type: cell-based
From the text: Assay for […] Inhibition by Measuring Cellular TMEM27 Cleavage
This assay uses the principle of inhibition of human TMEM27 cleavage by endogenous cellular BACE2 in the Ins1e rat cell line and shedding from the cell surface into the culture medium, followed by detection in an ELISA assay. Inhibition of BACE2 prevents the cleavage and shedding in a dose-dependent manner.
The stable cell line “INS-TMEM27” represents an INS1e-derived cell line with inducible expression (using the TetOn system) of full-length hTMEM27 in a doxycycline-dependent manner. The cells were cultured throughout the experiment in RPMI1640+Glutamax (Invitrogen) Penicillin/Streptomycin, 10% Fetal bovine serum, 100 mM pyruvate, […] beta-mercatptoethanol, 100 micrograms/ml G418 and 100 microgram/ml hygromycin and were grown in adherent culture at 37° C. in a standard CO2 cell culture incubator.
INS-TMEM27 cells were seeded in 96-well plates. After 2 days in culture, BACE2 inhibitor was added in a range of concentrations as required by the assay and after a further two hours, doxycycline was added to a final concentration of 500 ng/ml. The cells were incubated for a further 46 hours and the supernatant harvested for detection of shed TMEM27.
An ELISA assay (using a pair of mouse anti-human-TMEM27 antibodies, raised against the extracellular domain of TMEM27) was used for detection of TMEM27 in the culture medium. An IC50 for BACE2 inhibition was calculated using the ELISA readout for each inhibitor concentration with standard curve-fitting software.
The inhibitory activity, given as an IC50 value, of the compounds of Examples 1 to 32 and 34 to 74 were as follows.

Row | IC50 [µM] | SMILES
1 | 0.205 | Cc1csc(CN(C)C(=O)c2cccc(C(=O)N[C@@H](Cc3ccccc3)[C@H](O)CNCc3cccc(C(F)(F)F)c3)c2)n1 [Example 1, N-[(1S,2R)-1-Benzyl-2-hydroxy-3-(3-trifluoromethyl-benzylamino)-propyl]-N′-methyl-N′-(4-methyl-thiazol-2-ylmethyl)-isophthalamide]
2 | 0.258 | Cc1csc(CN(C)C(=O)c2cccc(C(=O)N[C@@H](Cc3ccccc3)[C@H](O)CNCc3cccc(OC(F)(F)F)c3)c2)n1 [Example 2, N-[(1S,2R)-1-Benzyl-2-hydroxy-3-(3-trifluoromethoxy-benzylamino)-propyl]-N′-methyl-N′-(4-methyl-thiazol-2-ylmethyl)-isophthalamide]
3 | 0.175 | COc1cccc(CNC[C@@H](O)[C@H](Cc2ccccc2)NC(=O)c2cccc(C(=O)N(C)Cc3nc(C)cs3)c2)c1 [Example 3, N-[(1S,2R)-1-Benzyl-2-hydroxy-3-(3-methoxy-benzylamino)-propyl]-N′-methyl-N′-(4-methyl-thiazol-2-ylmethyl)-isophthalamide]
4 | 0.471 | O=C(N[C@@H](Cc1ccccc1)[C@H](O)CNCc1cccc(OC(F)(F)F)c1)c1cccc(C(=O)N2CCCC2c2ccncc2)c1 (stereo partly drawn) [Example 4, N-[(1S,2R)-1-Benzyl-2-hydroxy-3-(3-trifluoromethoxy-benzylamino)-propyl]-3-(2-pyridin-4-yl-pyrrolidine-1-carbonyl)-benzamide]
5 | 0.14 | O=C(N[C@@H](Cc1ccccc1)[C@H](O)CNCc1cccc(C(F)(F)F)c1)c1cccc(C(=O)N2CCCC2c2ccncc2)c1 (stereo partly drawn) [Example 5, N-[(1S,2R)-1-Benzyl-2-hydroxy-3-(3-trifluoromethyl-benzylamino)-propyl]-3-(2-pyridin-4-yl-pyrrolidine-1-carbonyl)-benzamide]
6 | 0.52 | O=C(NCc1ccccn1)c1cccc(C(=O)N[C@@H](Cc2ccccc2)[C@H](O)CNCc2cccc(OC(F)(F)F)c2)c1 [Example 6, N-[(1S,2R)-1-Benzyl-2-hydroxy-3-(3-trifluoromethoxy-benzylamino)-propyl]-N′-pyridin-2-ylmethyl-isophthalamide]
7 | 0.478 | O=C(NCc1ccccn1)c1cccc(C(=O)N[C@@H](Cc2ccccc2)[C@H](O)CNCc2cccc(C(F)(F)F)c2)c1 [Example 7, N-[(1S,2R)-1-Benzyl-2-hydroxy-3-(3-trifluoromethyl-benzylamino)-propyl]-N′-pyridin-2-ylmethyl-isophthalamide]
8 | 0.822 | CC1(C)[C@@H]2CC[C@@]1(C)CN(C(=O)c1cccc(C(=O)N[C@@H](Cc3ccccc3)[C@H](O)CNCc3cccc(OC(F)(F)F)c3)c1)C2 [Example 8, N-[(1S,2R)-1-Benzyl-2-hydroxy-3-(3-trifluoromethoxy-benzylamino)-propyl]-3-((1R,5S)-1,8,8-trimethyl-3-aza-bicyclo[3.2.1]octane-3-carbonyl)-benzamide]
9 | 0.263 | O=C(N[C@@H](Cc1ccccc1)[C@H](O)CNCc1cccc(OC(F)(F)F)c1)c1cccc(C(=O)N2CCC(c3ccccn3)C2)c1 (stereo partly drawn) [Example 9, N-[(1S,2R)-1-Benzyl-2-hydroxy-3-(3-trifluoromethoxy-benzylamino)-propyl]-3-(3-pyridin-2-yl-pyrrolidine-1-carbonyl)-benzamide]
10 | 0.014 | Cc1cc(C(=O)N[C@@H](Cc2ccccc2)[C@H](O)CNCc2cccc(OC(F)(F)F)c2)cc(C(=O)N2CCC[C@@H]2c2nc(C)cs2)c1 [Example 10, N-[(1S,2R)-1-Benzyl-2-hydroxy-3-(3-trifluoromethoxy-benzylamino)-propyl]-3-methyl-5-[(R)-2-(4-methyl-thiazol-2-yl)-pyrrolidine-1-carbonyl]-benzamide]
11 | 0.009 | Cc1csc([C@H]2CCCN2C(=O)c2cccc(C(=O)N[C@@H](Cc3ccccc3)[C@H](O)CNCc3cccc(C(F)(F)F)c3)c2)n1 [Example 11, N-[(1S,2R)-1-Benzyl-2-hydroxy-3-(3-trifluoromethyl-benzylamino)-propyl]-3-[(R)-2-(4-methyl-thiazol-2-yl)-pyrrolidine-1-carbonyl]-benzamide]
12 | 0.075 | O=C(N[C@@H](Cc1ccccc1)[C@H](O)CNCc1cccc(C(F)(F)F)c1)c1cccc(C(=O)N2CCCC2c2ccccc2)c1 (stereo partly drawn) [Example 12, N-[(1S,2R)-1-Benzyl-2-hydroxy-3-(3-trifluoromethyl-benzylamino)-propyl]-3-(2-phenyl-pyrrolidine-1-carbonyl)-benzamide]
13 | 0.068 | O=C(N[C@@H](Cc1ccccc1)[C@H](O)CNCc1cccc(C(F)(F)F)c1)c1cccc(C(=O)N2CCCC2c2cccnc2)c1 (stereo partly drawn) [Example 13, N-[(1S,2R)-1-Benzyl-2-hydroxy-3-(3-trifluoromethyl-benzylamino)-propyl]-3-(2-pyridin-3-yl-pyrrolidine-1-carbonyl)-benzamide]
14 | 0.063 | Cn1ccc(C2CCCN2C(=O)c2cccc(C(=O)N[C@@H](Cc3ccccc3)[C@H](O)CNCc3cccc(C(F)(F)F)c3)c2)n1 (stereo partly drawn) [Example 14, N-[(1S,2R)-1-Benzyl-2-hydroxy-3-(3-trifluoromethyl-benzylamino)-propyl]-3-[2-(1-methyl-1H-pyrazol-3-yl)-pyrrolidine-1-carbonyl]-benzamide]
15 | 0.332 | Cn1nccc1C1CCCN1C(=O)c1cccc(C(=O)N[C@@H](Cc2ccccc2)[C@H](O)CNCc2cccc(C(F)(F)F)c2)c1 (stereo partly drawn) [Example 15, N-[(1S,2R)-1-Benzyl-2-hydroxy-3-(3-trifluoromethyl-benzylamino)-propyl]-3-[2-(2-methyl-2H-pyrazol-3-yl)-pyrrolidine-1-carbonyl]-benzamide]
16 | 0.055 | Cc1cc(C2CCCN2C(=O)c2cccc(C(=O)N[C@@H](Cc3ccccc3)[C@H](O)CNCc3cccc(C(F)(F)F)c3)c2)on1 (stereo partly drawn) [Example 16, N-[(1S,2R)-1-Benzyl-2-hydroxy-3-(3-trifluoromethyl-benzylamino)-propyl]-3-[2-(3-methyl-isoxazol-5-yl)-pyrrolidine-1-carbonyl]-benzamide]
17 | 0.213 | Cc1noc(C2CCCN2C(=O)c2cccc(C(=O)N[C@@H](Cc3ccccc3)[C@H](O)CNCc3cccc(C(F)(F)F)c3)c2)n1 (stereo partly drawn) [Example 17, N-[(1S,2R)-1-Benzyl-2-hydroxy-3-(3-trifluoromethyl-benzylamino)-propyl]-3-[2-(3-methyl-[1,2,4]oxadiazol-5-yl)-pyrrolidine-1-carbonyl]-benzamide]
18 | 0.047 | CN(Cc1ccccn1)C(=O)c1cccc(C(=O)N[C@@H](Cc2ccccc2)[C@H](O)CNCc2cccc(C(F)(F)F)c2)c1 [Example 18, N-[(1S,2R)-1-Benzyl-2-hydroxy-3-(3-trifluoromethyl-benzylamino)-propyl]-N′-methyl-N′-pyridin-2-ylmethyl-isophthalamide]
19 | 0.008 | O=C(N[C@@H](Cc1ccccc1)[C@H](O)CNCc1cccc(C(F)(F)F)c1)c1cccc(C(=O)N2CCCC2c2cccs2)c1 (stereo partly drawn) [Example 19, N-[(1S,2R)-1-Benzyl-2-hydroxy-3-(3-trifluoromethyl-benzylamino)-propyl]-3-(2-thiophen-2-yl-pyrrolidine-1-carbonyl)-benzamide]
20 | 0.143 | COc1cccc(CNC[C@@H](O)[C@H](Cc2ccccc2)NC(=O)c2cccc(C(=O)N3CCC[C@@H]3c3nc(C)cs3)c2)c1 [Example 20, N-[(1S,2R)-1-Benzyl-2-hydroxy-3-(3-methoxy-benzylamino)-propyl]-3-[(R)-2-(4-methyl-thiazol-2-yl)-pyrrolidine-1-carbonyl]-benzamide]
21 | 0.037 | Cc1csc([C@H]2CCCN2C(=O)c2cccc(C(=O)N[C@@H](Cc3ccccc3)[C@H](O)CNCc3cccc(OC(F)(F)F)c3)c2)n1 [Example 21, N-[(1S,2R)-1-Benzyl-2-hydroxy-3-(3-trifluoromethoxy-benzylamino)-propyl]-3-[(R)-2-(4-methyl-thiazol-2-yl)-pyrrolidine-1-carbonyl]-benzamide]
22 | 0.0312 | COc1cccc(CNC[C@@H](O)[C@H](Cc2ccccc2)NC(=O)c2cccc(C(=O)N3CCCC3c3ccccc3)c2)c1 (stereo partly drawn) [Example 22, N-[(1S,2R)-1-Benzyl-2-hydroxy-3-(3-methoxy-benzylamino)-propyl]-3-(2-phenyl-pyrrolidine-1-carbonyl)-benzamide]
